Source: US20090318492A1, “INDOLE COMPOUNDS HAVING C4-ACIDIC SUBSTITUENTS AND USE THEREOF AS PHOSPHOLIPASE-A2 INHIBITORS” (priority 2005, published 2009)

Columns and labels:
[1] = biological target: T1, mouse group 1B PLA2 (mps PLA2) (Mus musculus, UniProt Q9Z0Y2); assay: Example 8 fluorimetric PLA2 inhibition assay (PPyrPM), mouse enzyme; assay type: biochemical
T1 construct: made in house; host or cells: E. coli
From the text: (§1) In this example, a fluorimetric assay procedure was used to evaluate the indole and indole-related compounds of the invention as inhibitors of group 1B phospholipase A2 (PLA2) from human, mouse and porcine. A description of this assay is found in articles: Leslie, C C and Gelb, M H (2004) Methods in Molecular Biology “Assaying phospholipase A2 activity”, 284:229-242; Singer, A G, et al. (2002) Journal of Biological Chemistry “Interfacial kinetic and binding properties of the complete set of human and mouse groups I, II, V, X, and XII secreted phospholipases A2”, 277:48535-48549, which are incorporated herein as references.
(§2) In general, this assay used a phosphatidylmethanol substrate with a pyrene fluorophore on the terminal end of the sn-2 fatty acyl chain. Without being bound by theory, close proximity of the pyrenes from neighboring phospholipids in a phospholipid vesicle caused the spectral properties to change relative to that of monomeric pyrene. Bovine serum albumin was present in the aqueous phase and captured the pyrene fatty acid when it is liberated from the glycerol backbone owing to the PLA2-catalyzed reaction. However, a potent inhibitor can inhibit the liberation of pyrene fatty acid from the glycerol backbone. […] The effect of a given inhibitor and inhibitor concentration on human, mouse and porcine phospholipase was determined.
Recombinant human and mouse group 1B PLA2 were cloned and expressed in E. coli as insoluble inclusion bodies. The inclusion bodies were isolated and purified by sonicating cell pellet in lysis buffer (50 mM Tris-HCl pH 7.0, 250 mM NaCl, 0.5% Triton 100), centrifugation at 12,000×g, and washing three times in washing buffer (20 mM Tris-HCl pH 7.0, 250 mM NaCl, 0.5% Triton 100). […]
(§3) The following procedure was performed to evaluate the inhibitory potency of the evaluated compounds. • 1. […]

[2] = biological target: T2, human group 1B PLA2 (hps PLA2) (Homo sapiens, UniProt P04054); assay: Example 8 fluorimetric PLA2 inhibition assay (PPyrPM), human enzyme; assay type: biochemical
T2 construct: made in house; host or cells: E. coli
From the text: as §1
as §2, with “reaction.” for “reaction. However, a potent inhibitor can inhibit the liberation of pyrene fatty acid from the glycerol backbone.”, “determined. […]” for “determined.”
as §3

[3] = system: LDL receptor knockout mice (B6.129S7-Ldlrtm1Her); assay: Example 11 LDL receptor knockout mice; assay type: in vivo, mouse; conditions: low fat control diet (D12328) with vs without test article
From the text: Mice lack an enzyme found in humans, cholesterol ester transfer protein (CETP), which is responsible for the transfer of cholesterol from high density lipoproteins (HDL) to the ApoB-containing lipoproteins such as very low density lipoproteins (VLDL) and low density lipoproteins (LDL). Consequently, LDL cholesterol levels in wild-type mice are very low compared to those seen in humans. The low density lipoprotein receptor (LDLR) is involved with clearing LDL and lipoprotein remnants containing apoE. If the LDLR is inactivated, LDL cholesterol levels rise to levels seen in humans. On a normal rodent diet, the LDL cholesterol levels in LDLR deficient mice are elevated compared to wild-type mice. […]
In these studies and the accompanying figures, Diet D12328 from Research Diets is referred to as the “Low Fat” or Control diet, while Diet D12079B from Research Diets is referred to as the “Western” diet. […] The Test Article content was calculated such that ad libitum consumption by the animals would deliver doses (in mg of Test Article per Kg animal weight per day) approximating those listed in Table 6.
Animals were maintained on the diets for twelve weeks. Body weights were recorded weekly. […] The serum was analyzed for total cholesterol, LDL cholesterol, HDL cholesterol, and triglycerides (TG). […]

T1 sequence (Q9Z0Y2 23-146): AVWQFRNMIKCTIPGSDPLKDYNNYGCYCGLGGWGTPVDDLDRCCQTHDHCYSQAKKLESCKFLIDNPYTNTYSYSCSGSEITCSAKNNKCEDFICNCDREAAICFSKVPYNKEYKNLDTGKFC
T2 sequence (P04054 23-148): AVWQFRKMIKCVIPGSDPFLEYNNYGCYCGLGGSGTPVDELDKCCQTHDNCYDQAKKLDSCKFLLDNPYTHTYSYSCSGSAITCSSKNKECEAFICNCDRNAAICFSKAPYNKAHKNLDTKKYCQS

Q: With Cc1c(C(=O)C(N)=O)c2c(OCC(=O)NS(=O)(=O)CCCC(=O)O)cccc2n1Cc1ccccc1 [ILY-IV-40, 4-[2-(3-Aminooxalyl-1-benzyl-2-methyl-1H-indol-4-yloxy)-acetylsulfamoyl]-butyric acid] as the molecule, how does the IC50 [1] read?
A: 1360 nM

Q: And the IC50 [2]?
A: 390 nM

Q: And the “effect in animals fed a low fat control diet” value [3]?
A: No or little effect
